Columns and labels:
[1] = system: NK-YS (IL-2 2.5 ng/mL); assay: drug sensitivity score (DSS) (DSS units); higher = more sensitive; extreme values may be limits of the assay; details: 72 h
[2] = system: normal primary NK cells, pool 2 (3 donors) (IL-2 2.5 ng/mL); assay: as above; details: 72 h
[3] = system: NK-92 (IL-2 2.5 ng/mL); assay: as above; details: 72 h
[4] = system: KAI3 (IL-2 2.5 ng/mL); assay: as above; details: 72 h
[5] = system: YT (IL-2 2.5 ng/mL); assay: as above; details: 72 h
[6] = system: normal primary NK cells, pool 1 (3 donors), resting (IL-2 0 ng/mL); assay: as above; details: 72 h
[7] = system: NKL (IL-2 2.5 ng/mL); assay: as above; details: 72 h
[8] = system: normal primary NK cells, pool 1 (3 donors) (IL-2 2.5 ng/mL); assay: as above; details: 72 h
[9] = system: normal primary NK cells, pool 3 (3 donors) (IL-2 2.5 ng/mL); assay: as above; details: 72 h
[10] = system: IMC-1 (IL-2 20 ng/mL); assay: as above; details: 72 h
[11] = system: SNK-6 (IL-2 2.5 ng/mL); assay: as above; details: 72 h
[12] = system: KHYG-1 (IL-2 2.5 ng/mL); assay: as above; details: 72 h
[13] = system: DERL-7 (IL-2 2.5 ng/mL); assay: as above; details: 72 h
[14] = system: normal NK cells expanded with K562-aAPC; assay: as above; details: 72 h; IL-2 2.5 ng/mL
Protocol: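 Drug sensitivity and resistance testing on K562-aAPC-expanded normal NK cells: 5 concentrations (10-fold steps over a 10,000-fold range), 72 h at 37 °C, viability by CellTiter-Glo normalised to DMSO and benzethonium chloride controls; DSS from the fitted curve.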

[15] = system: NK-YS (IL-2 2.5 ng/mL); assay: percent inhibition of viability; higher = more inhibition; details: 72 h
[16] = system: normal primary NK cells, pool 2 (3 donors) (IL-2 2.5 ng/mL); assay: as above; details: 72 h
[17] = system: NK-92 (IL-2 2.5 ng/mL); assay: as above; details: 72 h
[18] = system: KAI3 (IL-2 2.5 ng/mL); assay: as above; details: 72 h
[19] = system: YT (IL-2 2.5 ng/mL); assay: as above; details: 72 h
[20] = system: normal primary NK cells, pool 1 (3 donors), resting (IL-2 0 ng/mL); assay: as above; details: 72 h
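Throughout, for percent inhibition of viability: normalised to DMSO-only wells as negative and benzethonium chloride as positive control.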

Cc1nc(C(=O)NCC(=O)O)c(O)c2ccc(Oc3ccccc3)cc12 [FG-4592] (max concentration tested 10000 nM)
Details | drug sensitivity score
[1] | 1.72
[2] | 0
[3] | 1.18
[4] | 0.42
[5] | 0
[6] | 0
[7] | 0.76
[8] | 0
[9] | 0
[10] | 0.7
[11] | 1.59
[12] | 1
[13] | 0
[14] | 0.37

percent inhibition of viability [%]
Details | [15] | [16] | [17] | [18] | [19] | [20]
1 nM | -2.71 | -11.8 | -0.86 | 1.56 | 1.14 | 5.05
10 nM | -1.91 | -5.39 | -2.06 | -2.99 | -2.12 | -14.3
100 nM | 3.2 | -6.37 | 10.9 | 1.6 | -1.6 | 2.92
1000 nM | 3.83 | 1.43 | 12.5 | -0.39 | -8.84 | –
10000 nM | 27.3 | 10.4 | 8.29 | 17.9 | 8.38 | –

Source: the supplement of paper PMC5908809
